# Test results published in publication PMC3836681 (Journal of molecular biology, 2012).
# Columns and labels:
# Format in all cases: binding
# [1] = molecular target: RPB1579 (Rhodopseudomonas palustris, UniProt Q2IZS1); assay: fluorescence thermal shift; settings: 10 µM protein, 1000 µM ligand
# [2] = molecular target: Bll5953 (Bradyrhizobium diazoefficiens, UniProt Q89HN7); assay: fluorescence thermal shift; settings: 10 µM protein, 1000 µM ligand
# [3] = molecular target: RPA4029 (Rhodopseudomonas palustris, UniProt Q6N2M1); assay: fluorescence thermal shift; settings: 10 µM protein, 1000 µM ligand
# [4] = molecular target: SMb20568 (Sinorhizobium meliloti, UniProt Q92TN0); assay: fluorescence thermal shift; settings: 10 µM protein, 1000 µM ligand
# [5] = molecular target: T1, RPA0668 (Rhodopseudomonas palustris, UniProt G3XCQ4); assay: X-ray crystal structure […] Å; settings: SeMet protein, 5 mM sodium BEZ in crystallization
# [6] = molecular target: T2, RPD1586 (Rhodopseudomonas palustris, UniProt Q13AR6); assay: X-ray crystal structure […] Å; settings: SeMet protein
# [7] = molecular target: T1, RPA0668; assay: X-ray crystal structure […] Å; settings: SeMet protein, 5 mM sodium PHB in crystallization
# [8] = molecular target: T1, RPA0668; assay: fluorescence thermal shift; settings: 10 µM protein, 1000 µM ligand
# [9] = molecular target: T2, RPD1586; assay: X-ray crystal structure […] Å; settings: SeMet protein, 5 mM sodium VLA in crystallization
smiles,measurement,setting,value
"O=C(O)c1ccc(O)c(O)c1 [DHB, 3,4-dihydroxybenzoate]",ΔTm,[1],"the preferred ligands (DHB, VLA) are the same for each protein"
same,ΔTm,[2],"the preferred ligands (DHB, VLA) are the same for each protein"
same,ΔTm,[3],"the preferred ligands (DHB, VLA) are the same for each protein"
same,ΔTm,[4],equivalent thermal stabilization with 4-hydroxybenzoate (PHB) and DHB
"O=C(O)c1ccccc1 [BEZ, benzoate]",X-ray crystal structure 1.84 Å; fluorescence thermal shift,[5],RPA0668 has been determined in complex with the two most preferred ligands BEZ and PHB
"O=C(O)c1ccc(O)cc1 [PHB, 4-hydroxybenzoate]",X-ray crystal structure 2.22 Å; fluorescence thermal shift,[6],"RPD1586 protein from the Ic subgroup was crystallized with PHB, DHB, and VLA"
same,X-ray crystal structure 1.40 Å; fluorescence thermal shift,[7],RPA0668 has been determined in complex with the two most preferred ligands BEZ and PHB
same,ΔTm,[4],equivalent thermal stabilization with 4-hydroxybenzoate (PHB) and DHB
O=C(O)c1cccc(O)c1 [3-hydroxybenzoate],ΔTm,[4],increased protein stability of SMb20568 with 3-hydroxybenzoate or gallic acid
O=Cc1ccccc1 [benzaldehyde],ΔTm,[8],excellent thermal stabilization is observed for aromatic compounds with an aldehyde or carboxyl group
"COc1cc(C(=O)O)ccc1O [VLA, 4-hydroxy-3-methoxybenzoate]",ΔTm,[1],"the preferred ligands (DHB, VLA) are the same for each protein"
same,ΔTm,[2],"the preferred ligands (DHB, VLA) are the same for each protein"
same,ΔTm,[3],"the preferred ligands (DHB, VLA) are the same for each protein"
same,X-ray crystal structure 1.86 Å; fluorescence thermal shift,[9],"RPD1586 protein from the Ic subgroup was crystallized with PHB, DHB, and VLA"
O=C(O)c1cc(O)c(O)c(O)c1 [gallic acid],ΔTm,[4],exhibits a greater ΔTm with gallic acid
